The results in this text go back to ChEMBL document CHEMBL4011585, “Identification of dibenzyl imidazolidine and triazole acetamide derivatives through virtual screening targeting amyloid beta aggregation and neurotoxicity in PC12 cells” (Eur J Med Chem, 2017).

The source made the active and inactive calls. The rule behind the calls is not given here.

Series [1] addresses Amyloid-beta precursor protein (Homo sapiens) (UniProt P05067). In words: Inhibition of recombinant human amyloid beta (1 to 42) aggregation at 100 uM measured every 10 mins for 48 hrs by thioflavin T fluorescence assay.
For series [2] the target is unchanged. As to the kind of experiment: Induction of morphological changes in recombinant human amyloid beta (1 to 42) fibrils assessed as thinner fibril at 100 uM measured after 48 hrs by transmission electron microscopic method.
Series [3] has the same target. As to the kind of experiment: Induction of morphological changes in recombinant human amyloid beta (1 to 42) assessed as appearance of uneven fibrils at 100 uM measured after 48 hrs by transmission electron microscopic method.
For series [4] the target is unchanged. In words: Induction of morphological changes in recombinant human amyloid beta (1 to 42) assessed as appearance of small mesh-like aggregates at 100 uM measured after 48 hrs by transmission electron microscopic method.
The target is the same in series [5]. As to the kind of experiment: Induction of morphological changes in recombinant human amyloid beta (1 to 42) assessed as appearance of punctate at 100 uM measured after 48 hrs by transmission electron microscopic method.
For series [6] the target is unchanged. As to the kind of experiment: Induction of morphological changes in recombinant human amyloid beta (1 to 42) assessed as less dense fibril at 100 uM measured after 48 hrs by transmission electron microscopic method.
In series [7] the test system is PC-12. As to the kind of experiment: Cytotoxicity against rat PC12 cells assessed as reduction in cell viability at 100 uM after 48 hrs by MTT assay relative to control. It is filed as cell-based. The note with it: pc-12, 48 h.
The target of series [8] is Amyloid-beta precursor protein (Homo sapiens) (UniProt P05067). As to the kind of experiment: Induction of morphological changes in recombinant human amyloid beta (1 to 42) fibrils assessed as shorter fibril at 100 uM measured after 48 hrs by transmission electron microscopic method.
Series [9] shares this target. In words: Induction of morphological changes in recombinant human amyloid beta (1 to 42) assessed as loosely attached fibrils at 100 uM measured after 48 hrs by transmission electron microscopic method.
The test system of series [10] is PC-12. As to the kind of experiment: Cytotoxicity against rat PC12 cells assessed as reduction in cell viability up to 100 uM after 48 hrs by MTT assay. The series is classed as cell-based. Particulars: pc-12, 48 h. (In general: Tetrazolium dyes change colour on reduction, which living cells bring about.)
Series [11] has as its system PC-12. In words: Neuroprotective activity against amyloid beta (1 to 42)-induced cell death in rat PC12 cells assessed as cell viability at 100 uM measured after 48 hrs by MTS assay relative to control. The series is classed as functional.
Series [12] addresses Amyloid-beta precursor protein (Homo sapiens) (UniProt P05067). In words: Induction of morphological changes in recombinant human amyloid beta (1 to 42) assessed as smoother fibrils at 100 uM measured after 48 hrs by transmission electron microscopic method.
Series [13] concerns PC-12. In words: Cytotoxicity against rat PC12 cells assessed as reduction in cell viability at 10 uM after 48 hrs by MTT assay relative to control. The series is classed as cell-based. The note with it: pc-12, 48 h.
Series [14] relates to PC-12. As to the kind of experiment: Cytotoxicity against rat PC12 cells assessed as reduction in cell viability after 48 hrs by MTT assay. It is filed as cell-based. Particulars: pc-12, 48 h.

Chain of Amyloid-beta precursor protein (Homo sapiens) (P05067 whole entry): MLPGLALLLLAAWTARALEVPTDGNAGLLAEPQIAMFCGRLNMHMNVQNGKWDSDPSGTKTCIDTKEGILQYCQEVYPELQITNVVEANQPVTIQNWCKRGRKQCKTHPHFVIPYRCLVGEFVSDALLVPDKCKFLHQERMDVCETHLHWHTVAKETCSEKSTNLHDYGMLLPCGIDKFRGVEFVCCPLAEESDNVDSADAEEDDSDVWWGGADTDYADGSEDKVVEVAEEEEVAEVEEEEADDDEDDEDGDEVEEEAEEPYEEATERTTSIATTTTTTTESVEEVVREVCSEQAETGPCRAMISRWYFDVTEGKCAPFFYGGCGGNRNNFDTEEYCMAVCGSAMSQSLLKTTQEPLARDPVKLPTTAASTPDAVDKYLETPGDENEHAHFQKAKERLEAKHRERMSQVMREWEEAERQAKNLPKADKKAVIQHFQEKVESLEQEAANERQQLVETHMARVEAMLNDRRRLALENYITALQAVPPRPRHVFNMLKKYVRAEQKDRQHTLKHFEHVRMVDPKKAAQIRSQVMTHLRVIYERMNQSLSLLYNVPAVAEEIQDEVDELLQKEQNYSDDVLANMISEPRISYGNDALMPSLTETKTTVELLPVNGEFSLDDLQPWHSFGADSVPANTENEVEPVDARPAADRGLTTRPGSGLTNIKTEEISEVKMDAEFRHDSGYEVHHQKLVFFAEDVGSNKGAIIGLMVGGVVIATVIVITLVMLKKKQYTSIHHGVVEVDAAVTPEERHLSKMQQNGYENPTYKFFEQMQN

For `Cc1ccc(NC(=O)CSc2nnc(-c3ccc(N)cc3)n2C)cc1`, the inhibition result in series [1] is “Active”. Moreover, the result in series [2], in series [3], in [4], in [5] and in [6] was Active. Besides, the Activity with PC-12 [7] was 60%.
For the molecule `COc1cc(C2N(Cc3ccccc3)CCN2Cc2ccccc2)ccc1OCc1ccccc1`, the inhibition result in series [1] was “Active”. Besides, the outcome (in series [2]; in [8]; in series [9]; in series [3]; in [6]; in the series on PC-12 [11]) was Active. In addition, the Activity result with PC-12 [10] is “Non-Toxic”.
As to `c1ccc(COc2cccc(C3N(Cc4ccccc4)CCN3Cc3ccccc3)c2)cc1`, in series [1], the inhibition result was “inactive”. For the same molecule, the outcome (in series [2]; in [8]; in series [9]; in series [12]; in series [6]; in the series with PC-12 [11]) was Active. Further, in the series with PC-12 [10], the Activity entry is recorded as “Non-Toxic”.
With `Cc1cccc(CNC(=O)[C@@H](C)C2CCN(C(=O)c3ccc4oc(-c5ccccc5)nc4c3)CC2)c1`, the inhibition result in [1] was “inactive”. Further, the outcome in series [6] was inactive. For the same molecule, the Activity with PC-12 [7] is given as 87%; in the series with PC-12 [13], 35%; with PC-12 [14], “Dose-dependent effect”.
For the molecule `Cn1c(SCC(=O)Nc2ccccc2)nnc1-c1ccc(N)cc1`, the inhibition entry in [1] was “Active”. Besides, the result in series [2], in series [3], in [4], in series [5] and in series [6] was Active. Also, in the series with PC-12 [7], the Activity lay within 20 to 25%. Further, the viability at 100 µM in the series with PC-12 [11] (PC-12, 48 h, read-out: Activity) fell in the range of 73 to 78%.
